pIC50: −log10 of the molar value.
Assays:
human VR1 = molecular target: T1, human VR1 (Homo sapiens, UniProt Q8NER1); assay: capsaicin-induced Ca2+ influx in the human VR1-transfected CHO cell line (Assay 1); format: cell-based; conditions: Table 3; 10 nM capsaicin, human VR1-CHOluc9aeq cells; read-out: activity class
T1 construct: expressed in transfected cells
Excerpt: [Measurement of capsaicin-induced Ca^2+ influx in the human VR1-transfected CHO cell line] (Assay 1)
• (1) Establishment of the Human VR1-CHOluc9aeq Cell Line • Human vanilloid receptor (hVR1) cDNA was cloned from libraries of axotomized dorsal root ganglia (WO 00/29577). The cloned hVR1 cDNA was constructed with pcDNA3 vector and transfected into a CHOluc9aeq cell line. The cell line contains aequorin and CRE-luciferase reporter genes as read-out signals. The transfectants were cloned by limiting dilution in selection medium (DMEM/F12 medium (Gibco BRL) supplemented with 10% FCS, 1.4 mM Sodium pyruvate, 20 mM HEPES, 0.15% Sodium bicarbonate, 100 U/ml penicillin, 100 μg/ml streptomycin, 2 mM glutamine, non-essential amino acids and 2 mg/ml G418). Ca^2+ influx was examined in the capsaicin-stimulated clones. A high responder clone was selected and used for further experiments in the project. The human VR1-CHOluc9aeq cells were maintained in the selection medium and passaged every 3-4 days at 1-2.5×10^5 cells/flask ([…]). • (2) Measurement of Ca^2+ Influx Using FDSS-3000 • Human VR1-CHOluc9aeq cells were suspended in a culture medium which is the same as the selection medium except for G418 and seeded at a density of 1,000 cells per well into 384-well plates (black walled clear-base/Nalge Nunc International). Following the culture for 48 hrs the medium was changed to 2 μM Fluo-3 AM (Molecular Probes) and 0.02% Puronic F-127 in assay buffer (Hank's balanced salt solution (HBSS), 17 mM HEPES (pH7.4), 1 mM Probenecid, 0.1% BSA) and the cells were incubated for 60 min at. 25° C. After washing twice with assay buffer the cells were incubated with a test compound or vehicle for 20 min at 25° C. Mobilization of cytoplasmic Ca^2+ was measured by FDSS-3000 (λex=488 nm, λem=540 nm/Hamamatsu Photonics) for 60 sec after the stimulation with 10 nM capsaicin. Integral R was calculated and compared with controls. [Measurement of the Capsaicin-Induced Ca^2+ Influx in Primary Cultured Rat Dorsal Root Ganglia Neurons] (Assay 2) • (1) Preparation of Rat Dorsal Root Ganglia Neurons • New born Wister rats (5-11 days) were sacrificed and dorsal root ganglia (DRG) was removed. DRG was incubated with 0.1% trypsin (Gibco BRL) in PBS(−) (Gibco BRL) for 30 min at 37° C., then a half volume of fetal calf serum (FCS) was added and the cells were spun down. The DRG neuron cells were resuspended in Ham F12/5% FCS/5% horse serum (Gibco BRL) and dispersed by repeated pipetting and passing through 70 μm mesh Falcon). The culture plate was incubated for 3 hours at 37° C. to remove contaminating Schwann cells. Non-adherent cells were recovered and further cultured in laminin-coated 384 well plates (Nunc) at 1×10^4 cells/50 μl/well for 2 days in the presence of 50 ng/ml recombinant rat NGF (Sigma) and 50 μM 5-fluorodeoxyuridine (Sigma). • (2) Ca^2+ Mobilization Assay • DRG neuron cells were washed twice with HBSS supplemented with 17 mM HEPES (pH 7.4) and 0.1% BSA. After incubating with 2 μM fluo-3AM (Molecular Probe), 0.02% PF127 (Gibco BRL) and 1 mM probenecid (Sigma) for 40 min at 37° C., cells were washed 3 times. The cells were incubated with VR1 antagonists or vehicle (dimethylsulphoxide) and then with 1 μM capsaicin in FDSS-6000 (λex=480 nm, λem=520 nm/Hamamatsu Photonics). The fluorescence changes at 480 nm were monitored for 2.5 min. Integral R was calculated and compared with controls. [Organ Bath Assay to Measure the Capsaicin-Induced Bladder Contraction] (Assay 3)
The data corresponds to the compounds as yielded by solid phase synthesis and thus to levels of purity of about 40 to 90%. For practical reasons, the compounds are grouped in four classes of activity as follows: IC50=A(<or=)0.1 μM<B(<or=)0.5 μM<C(<or=)1 μM<D

T1 sequence (Q8NER1 whole entry): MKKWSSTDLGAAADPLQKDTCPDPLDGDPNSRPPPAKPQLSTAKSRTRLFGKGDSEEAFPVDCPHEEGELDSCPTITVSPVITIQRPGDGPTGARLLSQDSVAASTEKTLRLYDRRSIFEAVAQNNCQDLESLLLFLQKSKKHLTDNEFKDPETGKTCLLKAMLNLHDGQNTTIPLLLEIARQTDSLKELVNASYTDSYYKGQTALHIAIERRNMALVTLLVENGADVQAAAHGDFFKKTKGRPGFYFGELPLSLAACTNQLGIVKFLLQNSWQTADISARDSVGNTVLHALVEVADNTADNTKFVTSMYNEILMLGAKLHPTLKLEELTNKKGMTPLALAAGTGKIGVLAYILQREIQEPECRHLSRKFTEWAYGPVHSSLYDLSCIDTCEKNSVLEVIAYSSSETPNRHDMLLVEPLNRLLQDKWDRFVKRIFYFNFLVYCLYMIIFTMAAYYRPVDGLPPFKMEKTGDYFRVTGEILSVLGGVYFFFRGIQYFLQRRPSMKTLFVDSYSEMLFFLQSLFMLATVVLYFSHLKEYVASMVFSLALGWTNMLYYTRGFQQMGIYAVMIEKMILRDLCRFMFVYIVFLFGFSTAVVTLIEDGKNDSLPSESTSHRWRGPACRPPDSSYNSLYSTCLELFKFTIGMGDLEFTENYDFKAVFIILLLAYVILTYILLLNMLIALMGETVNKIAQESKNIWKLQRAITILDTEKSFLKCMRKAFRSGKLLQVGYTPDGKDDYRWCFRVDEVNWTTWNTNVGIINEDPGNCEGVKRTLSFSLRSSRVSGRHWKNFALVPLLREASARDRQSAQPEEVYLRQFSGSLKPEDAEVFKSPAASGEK

SMILES	pIC50 (human VR1)	melting point [°C]
Cc1ccccc1NC(=O)Nc1cccc2c1CC(O)CC2 (centres unmarked) [Example 5-6]	6.00 to 6.30	223
O=C(Nc1cccc(Oc2ccccc2)c1)Nc1cccc2c1CC(O)CC2 (centres unmarked) [Example 5-10]	> 7.00	194 to 195
O=C(Nc1cccc(OC(F)(F)F)c1)Nc1cccc2c1CC(O)CC2 (centres unmarked) [Example 5-11]	> 7.00	203 to 204
O=C(Nc1cccc(I)c1)Nc1cccc2c1CC(O)CC2 (centres unmarked) [Example 5-13]	> 7.00	226 to 228

— patent US7612113B2, “Hydroxy tetrahydro-naphthalenylurea derivatives” (Xention Limited, priority 2002, dated 2009)
